The target in experiment [1] is T1, wild type PKR (Homo sapiens, UniProt P30613). Description: PKR (wild type) enzyme AC50 assay, LDH/NADH-coupled, absorbance at 340 nm. The class given is biochemical. The conditions noted are these: for AC50: read-out: PKR WT AC50; for EC50: Table 4, AC50, enzyme assay, read-out: PKR WT. Here is the method:
(§1) Example 11. PKR Mutant Assay
(§2) PKR or PKR mutant enzyme solution was diluted into a reaction mix, which contains 1× buffer (100 mM KCl, 50 mM Tris pH 7.5, 5 mM MgCl2) as well as PEP (conc depends on enzyme), 180 μM NADH, 0.5 units LDH, 1 mM DTT, 0.03% BSA; final assay concentrations after 1.11 fold dilution are indicated.
(§3) 2 μL of test compound was added into wells first, and then 180 μL reaction mix was added.
(§4) Reactions mixture with test compound was assembled except for ADP, and plates were stored for 60 minutes at room temperature.
(§5) 20 uL ADP was added to start reaction at room temperature and reaction progress was measured as changes in absorbance at 340 nm wavelength at room temperature.
(§6) Test Compound Preparation:
(§7) Test compound stock was made at 100× concentration in 100% DMSO (10 mM)
(§8) 1 to 3 dilutions were made for 11 points (i.e. 50 μl of first concentration added to 100 μl 100% DMSO to yield 3.33 mM, 50 μl of this added to 100 μl DMSO to yield 1.11 mM, and so forth) • 1 to 100 dilution into assay (2 μl in 200 μl) yielded starting concentration of 100 μM, decreasing 3 fold for 11 points.
(§9) Assay Buffer: 100 mM KCl, 50 mM Tris 7.5, 5 mM MgCl2, 1 mM DTT, 0.03% BSA
(§10) Reaction Mixture: PKR mutant enzyme: 40-400 ng/well; ADP: 0.2-1.65 mM; PEP: 0.1-0.5 mM; NADH: 180 μM; LDH: 0.5 units (Sigma #59023); DTT: 1 mM; BSA: 0.03%.

Experiment [2] has as its target PKR K410E (Homo sapiens, UniProt P30613, K410E). The experiment is described as follows: PKR mutant assay (K410E), AC50, LDH/NADH-coupled, absorbance at 340 nm. The class given is biochemical. The conditions noted are these: for EC50: Table 4, AC50, enzyme assay. The procedure:
as §1, §2, §3, §4, §5, §6, §7, §8, §9, §10

In experiment [3] the target is PKR R510Q (Homo sapiens, UniProt P30613, R510Q). The experiment is described as follows: PKR mutant assay (R510Q), AC50, LDH/NADH-coupled, absorbance at 340 nm. The conditions noted are these: for AC50: read-out: PK R510Q AC50; for EC50: Table 4, AC50, enzyme assay, read-out: PK R510Q. It is filed as biochemical. Here is the method:
as §1, §2, §3, §4, §5, §6, §7, §8, §9, §10

Experiment [4] has as its target T1, wild type PKR. Description: Cell based ATP assay in purified red blood cells (Cell-Titer-Glo). Further details: endogenous in cells; host or cells: purified red blood cells from healthy volunteers. To be noted: overnight at 37° C., ATP levels; for AC50 / Cell based ATP assay AC50: Table 2, RBCs; for EC50: Table 4, AC50, RBCs. The procedure:
Example 16. Red Blood Cell (RBC) Purification
Fresh blood drawn from healthy volunteers into K2EDTA tubes was collected. Whole blood was pelleted by spinning at 500 g for 10 minutes. Cut transfusion bag port off of Purecell leukocyte reduction neofilter (Fisher NC0267633) one (1) inch above filter. Attach a 10 ml syringe barrel to the remaining cut tubing attached to neofilter. The plasma layer was removed from the pellet of the whole blood and the pellet was resuspended in 2× volume of phosphate buffered saline (PBS). Transfer 9 ml re-suspended blood cell pellet to prepared 10 ml syringe that is attached to the neofilter. Allow whole blood to gravity flow through filter until all fluid runs through upper tubing into filter disc. Add plunger to the syringe, remove syringe from clamp and invert the filter, then plunge air through the syringe filter system. Using a new 5 ml syringe, remove filtered RBCs from the bag by the syringe port and transfer purified RBCs to a 5 ml snap cap tube that has been incubated on ice. Spin 5 ml snap cap tube at 500 g for 10 minutes at 15 C, aspirate supernatant and resuspend in AGAM (1×PBS, 1% glucose, 170 mg/L adenine, 5.25 g/L mannitol) at a density of 4×10^9 cells/mL.
Example 17. Cell Based ATP Assay
For cell based ATP assays, the compound as described herein was prepared in 100% DMSO as a 10 mM stock. Serial dilutions (1:4) were performed in 96-well V-bottom storage plate and then added 1:100 to 96-well V-bottom plates containing AGAM. RBCs were diluted in AGAM media to a density of 1×10^7 cells/mL before added 90 μL/well to black clear bottom assay plates (final compound concentration at 0.1% DMSO concentration). Assay plates were sealed using aluminum foil seals and incubated overnight at 37° C. in a humidified chamber. ATP levels were read out using Cell-Titer-Glo (Promega).

The source of these data is patent publication US11957680B2, “Pyruvate kinase activators for use in treating blood disorders” (Agios Pharmaceuticals, Inc., priority 2017, dated 2024).

Each structure is given as a SMILES string. Where only a bound is given, the exact number is not on record here.

PKR K410E, sequence (P30613 whole entry K410E): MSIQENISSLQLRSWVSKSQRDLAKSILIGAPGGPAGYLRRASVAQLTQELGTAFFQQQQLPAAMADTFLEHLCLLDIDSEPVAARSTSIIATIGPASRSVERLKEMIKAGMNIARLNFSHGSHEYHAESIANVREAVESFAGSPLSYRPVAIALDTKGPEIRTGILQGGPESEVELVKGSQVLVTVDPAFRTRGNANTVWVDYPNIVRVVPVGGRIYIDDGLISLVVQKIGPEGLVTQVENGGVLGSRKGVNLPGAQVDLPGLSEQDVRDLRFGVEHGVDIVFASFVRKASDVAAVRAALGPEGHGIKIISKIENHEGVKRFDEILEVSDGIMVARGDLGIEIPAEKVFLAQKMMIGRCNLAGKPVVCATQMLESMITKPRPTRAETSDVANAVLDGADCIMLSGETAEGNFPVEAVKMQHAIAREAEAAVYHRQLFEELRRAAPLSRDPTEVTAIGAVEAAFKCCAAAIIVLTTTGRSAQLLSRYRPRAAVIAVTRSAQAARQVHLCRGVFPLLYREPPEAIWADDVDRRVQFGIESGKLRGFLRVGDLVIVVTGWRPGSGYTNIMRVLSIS
T1 sequence (P30613 whole entry): as the sequence (P30613 whole entry K410E) above, with E410K counted along it
PKR R510Q, sequence (P30613 whole entry R510Q): as the sequence (P30613 whole entry K410E) above, with E410K, R510Q counted along it

Broadly, the AC50 is the concentration giving half of the maximal activity seen. Turning to `Cn1c2nc(S(N)(=O)=O)sc2c2cnn(Cc3cccc4[nH]ncc34)c(=O)c21` [Compound 141], the AC50 in experiment [1] (Table 2, enzyme assay) was below 300 nM; in experiment [2] (Table 2, enzyme assay) it was below 300 nM; in experiment [3] (Table 2, enzyme assay) it was below 300 nM; in experiment [4] it was at most 1000 nM.

As to `Cn1c2nc(Cc3ccc[nH]c3=O)sc2c2cnn(Cc3cccc4[nH]ncc34)c(=O)c21` [Compound 228], the EC50 was below 300 nM in experiment [1], below 300 nM in experiment [2], below 300 nM in experiment [3] and at most 1000 nM in experiment [4].

On to `Cc1nc2c(s1)c1cnn(Cc3cccc4cn[nH]c34)c(=O)c1n2C` [Compound 65], for which the AC50 in experiment [1] (Table 2, enzyme assay) is above 800 nM; in experiment [2] (Table 2, enzyme assay), 301 to 800 nM; in experiment [3] (Table 2, enzyme assay) it was 301 to 800 nM; in experiment [4] it was above 1000 nM.

Take `Cn1c2nc(Cc3cccc(O)c3)sc2c2cnn(Cc3cccc4[nH]ncc34)c(=O)c21` [Compound 89]: the AC50 in experiment [1] (Table 2, enzyme assay) is below 300 nM; in experiment [2] (Table 2, enzyme assay), below 300 nM; in experiment [3] (Table 2, enzyme assay), below 300 nM; in experiment [4] it was at most 1000 nM.

Turning to `Cn1c2nc(Cc3cc[nH]n3)sc2c2cnn(Cc3ccc4oc(=O)[nH]c4n3)c(=O)c21` [Compound 386], the EC50 is below 300 nM in experiment [1], below 300 nM in experiment [2], below 300 nM in experiment [3] and at most 1000 nM in experiment [4].

On to `COc1cccc(Cn2ncc3c4sc(C(O)c5ccccc5)nc4n(C)c3c2=O)c1` (centres unmarked) [Compound 13], for which the AC50 in experiment [1] (Table 2, enzyme assay) was below 300 nM; in experiment [2] (Table 2, enzyme assay) it was below 300 nM; in experiment [3] (Table 2, enzyme assay), below 300 nM; in experiment [4], at most 1000 nM.

As for `Cn1c2nc(Cc3cc[nH]n3)sc2c2cnn(Cc3ccccc3)c(=O)c21` [Compound 193], the EC50 in experiment [1] was below 300 nM; in experiment [2], below 300 nM; in experiment [3], below 300 nM; in experiment [4], at most 1000 nM.

Turning to `Cn1c2nc(Cc3cccc4cn[nH]c34)sc2c2cnn(Cc3cc[nH]n3)c(=O)c21` [Compound 241], the EC50 is below 300 nM in experiment [1], below 300 nM in experiment [2], below 300 nM in experiment [3] and at most 1000 nM in experiment [4].

As for `CSc1nc2c(s1)c1cnn(Cc3cnc(=O)[nH]c3)c(=O)c1n2C` [Compound 95], the “PKR WT AC50” value in experiment [1] (Table 2, enzyme assay) is given as “No Fit”. For the same molecule, the “PKR K410E AC50” value in experiment [2] (Table 2, enzyme assay) is on record as “No Fit”. Besides, in experiment [3] (Table 2, enzyme assay), the “PK R510Q AC50” value is on record as “No Fit”. For the same molecule, the “Cell based ATP assay AC50” value in experiment [4] is recorded as “No Fit”.

In the case of `COc1cccc(Cn2ncc3c4sc(C(F)(F)c5ccccc5)nc4n(C)c3c2=O)c1` [Compound 108], the AC50 in experiment [1] (Table 2, enzyme assay) was below 300 nM; in experiment [2] (Table 2, enzyme assay) it was below 300 nM; in experiment [3] (Table 2, enzyme assay), below 300 nM; in experiment [4] it was at most 1000 nM.

For `Cc1nc2c(s1)c1cnn(Cc3ccc4cn[nH]c4c3)c(=O)c1n2C` [Compound 33], the AC50 was above 800 nM in experiment [1] (Table 2, enzyme assay); above 800 nM in experiment [2] (Table 2, enzyme assay); 301 to 800 nM in experiment [3] (Table 2, enzyme assay); above 1000 nM in experiment [4].

For `Cn1c2nc(Cc3cc[nH]n3)sc2c2cnn(Cc3ccc4cc(F)[nH]c4n3)c(=O)c21` [Compound 391], the EC50 in experiment [1] was below 300 nM; in experiment [2], below 300 nM; in experiment [3] it was below 300 nM; in experiment [4], at most 1000 nM.

Take `COC(=O)c1nc2c(s1)c1cnn(Cc3cccc(OC)c3)c(=O)c1n2C` [Compound 43]: the AC50 in experiment [1] (Table 2, enzyme assay) was above 800 nM; in experiment [2] (Table 2, enzyme assay) it was above 800 nM; in experiment [3] (Table 2, enzyme assay), 301 to 800 nM. Besides, the “Cell based ATP assay AC50” value in experiment [4] is given as “No Fit”.

For the molecule `Cc1nc2c(s1)c1cnn(Cc3ccc4cc[nH]c4c3)c(=O)c1n2C` [Compound 60], the AC50 in experiment [1] (Table 2, enzyme assay) is below 300 nM; in experiment [2] (Table 2, enzyme assay), below 300 nM; in experiment [3] (Table 2, enzyme assay), below 300 nM; in experiment [4], at most 1000 nM.
